Patent US10047078B2, “Aminothiazole compounds” (National Health Research Institutes, priority 2016, dated 2018)

Legend:
32D-ITD/F691I cells = test: MTS cell viability, 32D cells expressing FLT3-ITD mutant; format: cell-based, Murine; conditions: Mus musculus, 32D, 72 h, 72-h incubation
From the text: (§1) The five leukemic 32D cell lines were purchased from American Type Culture Collection (ATCC, Manassas, Va., USA). Murine pro-B lymphocyte 32D cell lines were stably transfected with expression vectors that encoded human FLT3 containing an ITD mutation (32D-ITD cells), ITD and D835Y (32D-ITD/D835Y cells), ITD and D835V (32D-ITD/D835V cells), ITD and D835F (32D-ITD/D835F cells), and ITD and F691L (32D-ITD/F691L cells) mutations, which lead to constitutive activation of the FLT3 downstream signaling proteins. The cell viability was assessed with the MTS assay described in PLoS One, 2014, 9, e97116. 32D-ITD/D835Y, 32D-ITD/D835V, 32D-ITD/D835F, 32D-ITD/F691L, and 32D-ITD/F691I cells were seeded in 96-well plates at 1×10^4 cells/mL (100 μL per well) for 24-h incubation. Test compounds (at various concentrations in dimethyl sulfoxide (DMSO) were subsequently added to the culture medium for 72-h incubation. The cell viability was determined by the MTS assay (Promega, Madison, Wis., USA).

32D-ITD/F691L cells = test: as above; format: cell-based, Murine; conditions: Mus musculus, 32D, 72 h, 72-h incubation
From the text: as §1

32D-ITD/D835F cells = test: as above; format: cell-based, Murine; conditions: 72-h incubation
From the text: as §1

[1] = system: xenografts colo205 nude mice; test: In vivo toxicity study, colo205 model
Procedure: Male nude mice (Nu-Fox1^nu) of 8 weeks old were purchased from BioLASCO (Taipei, Taiwan, R.O.C.). Human colorectal Colo205, pancreatic Mia-PaCa 2 tumor cells or MOLM-13, 32D-ITD/D835Y leukemia cells were inoculated subcutaneously at 1×10^6 cells each in the nude mice. […] The tumor cells grow as xenograft tumors and the tumor size reached approximately 200-250 mm^3 in the nude mice ready for dose treatments. Test compounds were dissolved in 20% 2-hydroxypropy-β-cyclodextrin individually for oral gavage administrations to the nude mice. The tumor-bearing mice were treated with test compounds at various doses, 5 times a week for 2 weeks. Tumor sizes were measured by an electronic caliper and calculated with the formula: tumor size=length×width^2/2. Tumor size and animal body weight were measured twice a week before and after the tumor cell inoculation throughout the observation period. Uses of animals and experimental procedures thereof were approved by the Institutional Animal Care and Use Committee (IACUC) of the National Health Research Institutes.
Nine weeks old athymic nu/nu nude mice were administered orally at a once daily dose of 25, 50, 100, or 150 mg/kg on days 1-5 and 8-12.

Colo205 xenografts = test: Xenograft efficacy, Colo205 model; format: in vivo; conditions: Colo205 xenografts in nude mice; PO 50 mg/kg, 5 times a week for 2 weeks; 50 mg/kg
Procedure: Male nude mice (Nu-Fox1^nu) of 8 weeks old were purchased from BioLASCO (Taipei, Taiwan, R.O.C.). Human colorectal Colo205, pancreatic Mia-PaCa 2 tumor cells or MOLM-13, 32D-ITD/D835Y leukemia cells were inoculated subcutaneously at 1×10^6 cells each in the nude mice. All human cancer cells were detected as free of Mycoplasma spp before they were injected into animals. The tumor cells grow as xenograft tumors and the tumor size reached approximately 200-250 mm^3 in the nude mice ready for dose treatments. Test compounds were dissolved in 20% 2-hydroxypropy-β-cyclodextrin individually for oral gavage administrations to the nude mice. The tumor-bearing mice were treated with test compounds at various doses, 5 times a week for 2 weeks. Tumor sizes were measured by an electronic caliper and calculated with the formula: tumor size=length×width^2/2. Tumor size and animal body weight were measured twice a week before and after the tumor cell inoculation throughout the observation period. Uses of animals and experimental procedures thereof were approved by the Institutional Animal Care and Use Committee (IACUC) of the National Health Research Institutes.

SRC = SRC (Homo sapiens, UniProt P12931); test: SelectScreen biochemical kinase profiling; format: binding
Sequence of SRC (P12931 whole entry): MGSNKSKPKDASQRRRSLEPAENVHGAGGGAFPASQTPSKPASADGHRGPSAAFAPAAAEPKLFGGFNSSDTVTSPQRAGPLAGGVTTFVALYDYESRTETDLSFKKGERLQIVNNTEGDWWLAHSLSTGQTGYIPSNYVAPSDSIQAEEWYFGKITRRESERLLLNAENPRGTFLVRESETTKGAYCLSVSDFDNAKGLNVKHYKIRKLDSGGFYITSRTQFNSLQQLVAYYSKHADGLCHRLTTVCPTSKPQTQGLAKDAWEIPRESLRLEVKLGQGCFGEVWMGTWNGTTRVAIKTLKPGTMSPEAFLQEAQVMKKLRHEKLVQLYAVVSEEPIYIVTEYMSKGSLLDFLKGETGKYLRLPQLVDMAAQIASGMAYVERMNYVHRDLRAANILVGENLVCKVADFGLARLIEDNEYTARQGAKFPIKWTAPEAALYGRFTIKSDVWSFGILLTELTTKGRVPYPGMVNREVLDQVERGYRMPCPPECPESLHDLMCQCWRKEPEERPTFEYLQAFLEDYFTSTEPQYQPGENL
Procedure: (§2) Kinase inhibition data were obtained from SelectScreen® Biochemical Kinase Profiling Service.
(§3) More specifically, test compounds were screened in 160 nL of a 1% DMSO solution in the well of a 384-well plate; kinase/antibody mixtures (8 μL) were diluted to a 2-fold working concentration in an appropriate kinase buffer (3.84 μL) and a 4-fold AlexaFluor® labeled tracer (4 μL) was prepared in the kinase buffer; incubation of test solutions was conducted at room is temperature for 60 minutes; and readout on a fluorescence plate reader was recorded and analyzed.

ABL1 = ABL1 (Homo sapiens, UniProt P00519); test: SelectScreen biochemical kinase profiling; format: binding; conditions: 100 nM, read-out: Inhibition (% of control) at 100 nM
Procedure: as §2, §3

PDGFR A = PDGFR A (Homo sapiens, UniProt P16234); test: SelectScreen biochemical kinase profiling; format: binding
Sequence of PDGFR A (P16234 24-1089): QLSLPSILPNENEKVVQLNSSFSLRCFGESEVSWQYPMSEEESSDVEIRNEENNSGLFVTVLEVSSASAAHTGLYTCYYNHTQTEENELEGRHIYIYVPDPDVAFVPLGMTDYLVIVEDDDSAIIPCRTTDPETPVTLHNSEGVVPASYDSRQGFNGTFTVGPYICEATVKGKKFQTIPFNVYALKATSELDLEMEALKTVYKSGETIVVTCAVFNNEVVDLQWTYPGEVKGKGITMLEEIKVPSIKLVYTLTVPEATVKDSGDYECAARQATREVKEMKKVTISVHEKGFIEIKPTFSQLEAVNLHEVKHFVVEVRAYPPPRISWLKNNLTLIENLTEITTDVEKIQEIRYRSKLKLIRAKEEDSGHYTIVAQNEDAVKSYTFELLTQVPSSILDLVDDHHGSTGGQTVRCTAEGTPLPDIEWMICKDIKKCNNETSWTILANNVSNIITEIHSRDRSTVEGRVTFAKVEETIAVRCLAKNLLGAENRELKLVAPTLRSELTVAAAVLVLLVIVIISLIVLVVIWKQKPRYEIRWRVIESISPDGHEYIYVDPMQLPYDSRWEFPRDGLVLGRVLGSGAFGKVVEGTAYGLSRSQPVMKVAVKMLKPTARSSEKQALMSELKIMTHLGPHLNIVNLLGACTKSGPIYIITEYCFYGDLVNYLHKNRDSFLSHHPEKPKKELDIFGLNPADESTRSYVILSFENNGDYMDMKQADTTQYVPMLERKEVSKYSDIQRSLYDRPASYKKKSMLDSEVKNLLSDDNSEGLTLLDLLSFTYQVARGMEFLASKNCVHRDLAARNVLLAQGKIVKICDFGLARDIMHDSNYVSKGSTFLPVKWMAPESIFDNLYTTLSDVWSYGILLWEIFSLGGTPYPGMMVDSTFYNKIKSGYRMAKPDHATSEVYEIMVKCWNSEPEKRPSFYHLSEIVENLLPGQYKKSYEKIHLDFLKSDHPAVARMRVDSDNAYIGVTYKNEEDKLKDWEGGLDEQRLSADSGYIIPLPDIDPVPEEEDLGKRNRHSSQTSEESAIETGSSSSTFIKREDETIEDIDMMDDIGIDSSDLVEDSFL
Procedure: as §2, §3

VEGFR2 = VEGFR2 (Homo sapiens, UniProt P35968); test: SelectScreen biochemical kinase profiling; format: binding
Sequence of VEGFR2 (P35968 20-1356): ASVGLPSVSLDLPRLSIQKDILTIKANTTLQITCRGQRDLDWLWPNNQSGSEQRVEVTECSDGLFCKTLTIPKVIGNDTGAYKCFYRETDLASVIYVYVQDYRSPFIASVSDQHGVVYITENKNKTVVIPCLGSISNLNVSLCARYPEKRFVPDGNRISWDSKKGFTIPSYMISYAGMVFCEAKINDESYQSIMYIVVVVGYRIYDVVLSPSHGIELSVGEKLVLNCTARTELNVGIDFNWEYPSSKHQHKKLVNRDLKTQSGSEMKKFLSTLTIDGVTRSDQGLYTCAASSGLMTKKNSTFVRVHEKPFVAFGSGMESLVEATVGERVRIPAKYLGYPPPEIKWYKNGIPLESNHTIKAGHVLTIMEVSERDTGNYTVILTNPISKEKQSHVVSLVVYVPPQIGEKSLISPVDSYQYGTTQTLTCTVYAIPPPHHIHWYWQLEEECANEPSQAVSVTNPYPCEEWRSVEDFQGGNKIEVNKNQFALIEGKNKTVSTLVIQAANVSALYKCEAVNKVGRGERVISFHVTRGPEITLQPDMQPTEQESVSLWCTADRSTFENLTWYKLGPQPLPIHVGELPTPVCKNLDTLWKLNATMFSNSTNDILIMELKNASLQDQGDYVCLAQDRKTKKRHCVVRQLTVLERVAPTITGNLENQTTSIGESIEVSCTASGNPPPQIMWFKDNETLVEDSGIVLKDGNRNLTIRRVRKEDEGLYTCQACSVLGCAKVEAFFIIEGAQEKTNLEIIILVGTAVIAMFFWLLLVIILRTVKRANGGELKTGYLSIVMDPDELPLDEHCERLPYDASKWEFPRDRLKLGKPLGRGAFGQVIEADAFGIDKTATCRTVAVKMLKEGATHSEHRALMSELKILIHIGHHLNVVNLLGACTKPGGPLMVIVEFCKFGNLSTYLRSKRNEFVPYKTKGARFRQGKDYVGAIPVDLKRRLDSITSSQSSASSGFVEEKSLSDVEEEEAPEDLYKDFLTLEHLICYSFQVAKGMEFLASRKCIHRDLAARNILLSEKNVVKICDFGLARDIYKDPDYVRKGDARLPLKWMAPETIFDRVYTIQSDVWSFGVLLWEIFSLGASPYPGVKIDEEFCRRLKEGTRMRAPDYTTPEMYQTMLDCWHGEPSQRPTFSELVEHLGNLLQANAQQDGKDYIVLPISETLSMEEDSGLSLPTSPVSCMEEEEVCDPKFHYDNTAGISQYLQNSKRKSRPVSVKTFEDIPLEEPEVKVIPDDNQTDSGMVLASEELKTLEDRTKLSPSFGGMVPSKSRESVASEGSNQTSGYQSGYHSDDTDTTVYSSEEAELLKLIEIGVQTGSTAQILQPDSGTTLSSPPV
Procedure: as §2, §3

RET = RET (Homo sapiens, UniProt P07949); test: SelectScreen biochemical kinase profiling; format: binding; conditions: 100 nM, read-out: Inhibition (% of control) at 100 nM
Procedure: as §2, §3

PDGFR B = PDGFR B (Homo sapiens, UniProt P09619); test: SelectScreen biochemical kinase profiling; format: binding
Sequence of PDGFR B (P09619 33-1106): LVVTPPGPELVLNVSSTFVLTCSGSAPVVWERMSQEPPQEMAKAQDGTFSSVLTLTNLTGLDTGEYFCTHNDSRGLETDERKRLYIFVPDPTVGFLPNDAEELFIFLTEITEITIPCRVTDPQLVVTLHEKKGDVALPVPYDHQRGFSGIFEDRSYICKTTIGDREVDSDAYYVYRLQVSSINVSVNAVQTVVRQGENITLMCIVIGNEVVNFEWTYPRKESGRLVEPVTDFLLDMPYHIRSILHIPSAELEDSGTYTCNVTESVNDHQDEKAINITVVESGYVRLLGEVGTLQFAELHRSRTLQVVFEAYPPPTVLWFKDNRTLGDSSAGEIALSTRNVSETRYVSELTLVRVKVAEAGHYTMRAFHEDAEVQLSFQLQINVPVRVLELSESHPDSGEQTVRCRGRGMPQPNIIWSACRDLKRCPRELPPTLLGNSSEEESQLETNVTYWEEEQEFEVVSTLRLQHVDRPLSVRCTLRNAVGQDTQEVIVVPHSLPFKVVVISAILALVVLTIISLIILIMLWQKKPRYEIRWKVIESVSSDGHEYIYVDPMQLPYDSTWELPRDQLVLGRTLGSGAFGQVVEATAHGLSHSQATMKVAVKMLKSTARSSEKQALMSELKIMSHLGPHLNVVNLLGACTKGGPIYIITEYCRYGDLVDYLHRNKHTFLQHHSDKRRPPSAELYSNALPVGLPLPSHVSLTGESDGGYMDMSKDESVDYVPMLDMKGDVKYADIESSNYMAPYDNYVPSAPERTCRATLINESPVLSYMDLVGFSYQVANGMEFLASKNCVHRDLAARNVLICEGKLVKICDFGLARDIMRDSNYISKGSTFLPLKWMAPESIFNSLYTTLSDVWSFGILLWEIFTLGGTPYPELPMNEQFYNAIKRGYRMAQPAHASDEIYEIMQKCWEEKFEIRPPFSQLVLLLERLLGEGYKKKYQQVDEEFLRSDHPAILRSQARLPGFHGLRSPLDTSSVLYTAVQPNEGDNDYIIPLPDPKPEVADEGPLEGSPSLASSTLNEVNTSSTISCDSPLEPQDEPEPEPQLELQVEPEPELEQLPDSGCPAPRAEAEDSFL
Procedure: as §2, §3

KIT = KIT (Homo sapiens, UniProt P10721); test: SelectScreen biochemical kinase profiling; format: binding
Sequence of KIT (P10721 26-976): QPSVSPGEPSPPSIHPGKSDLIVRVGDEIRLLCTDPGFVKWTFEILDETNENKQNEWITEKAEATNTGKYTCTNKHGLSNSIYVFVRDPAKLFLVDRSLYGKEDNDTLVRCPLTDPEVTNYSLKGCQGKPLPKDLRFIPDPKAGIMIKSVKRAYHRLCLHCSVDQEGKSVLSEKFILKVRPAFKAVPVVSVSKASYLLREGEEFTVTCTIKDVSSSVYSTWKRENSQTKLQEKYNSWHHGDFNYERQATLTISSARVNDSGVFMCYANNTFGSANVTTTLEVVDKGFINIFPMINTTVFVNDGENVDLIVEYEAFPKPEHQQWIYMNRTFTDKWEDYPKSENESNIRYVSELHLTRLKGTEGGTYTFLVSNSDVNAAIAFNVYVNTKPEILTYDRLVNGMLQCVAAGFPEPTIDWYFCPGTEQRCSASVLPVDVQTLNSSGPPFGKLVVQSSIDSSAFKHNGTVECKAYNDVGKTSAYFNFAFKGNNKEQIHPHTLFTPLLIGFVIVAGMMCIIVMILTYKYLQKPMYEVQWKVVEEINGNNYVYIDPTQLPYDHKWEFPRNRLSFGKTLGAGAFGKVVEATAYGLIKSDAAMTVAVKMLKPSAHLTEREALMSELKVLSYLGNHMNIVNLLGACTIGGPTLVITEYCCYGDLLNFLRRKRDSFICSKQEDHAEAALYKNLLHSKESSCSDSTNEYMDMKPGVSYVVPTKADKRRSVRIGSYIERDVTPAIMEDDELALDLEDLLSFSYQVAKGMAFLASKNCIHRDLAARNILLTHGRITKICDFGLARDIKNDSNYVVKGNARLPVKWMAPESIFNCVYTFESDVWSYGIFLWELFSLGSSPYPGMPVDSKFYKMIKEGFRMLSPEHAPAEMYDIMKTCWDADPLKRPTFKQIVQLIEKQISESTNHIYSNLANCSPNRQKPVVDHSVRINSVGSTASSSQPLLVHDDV
Procedure: as §2, §3

ABL1 T315I = ABL1 T315I (Homo sapiens, UniProt P00519, T315I); test: SelectScreen biochemical kinase profiling; format: binding; conditions: 100 nM, read-out: Inhibition (% of control) at 100 nM
Procedure: as §2, §3

[2] = 100 nM, read-out: Inhibition (% of control) at 100 nM
[3] = read-out: IC50 value (number in the bracket)

Compound `CCc1cc(NC(=O)Nc2ccc(-c3cnc(Nc4cc(N5CCN(CCO)CC5)nc(C)n4)s3)cc2)no1` [Compound 1, 1-(5-Ethylisoxazol-3-yl)-3-(4-(2-((6-(4-(2-hydroxyethyl)piperazin-1-yl)-2-methylpyrimidin-4-yl)amino)thiazol-5-yl)phenyl)urea] has a GI50 (32D-ITD/F691I cells) of 45 nM, a GI50 (32D-ITD/F691L cells) of 8.5 nM and a GI50 (32D-ITD/D835F cells) of 3.2 nM. The GI50 (32D-ITD/D835F cells; Mus musculus, 32D, 72 h) was less than 6 nM, the “Mortality (nude mice n = 6)” value ([1]; PO 50 mg/kg once daily, 5 on 2 off × 2) was 0/6 (50 mg/kg) and the Tolerability ([1]; PO once daily, Compounds 1, 2, 3, 4, 6 at 50, 50, 100, 150 and 25 mg/kg) was “well tolerated”. The “Day 18 TGI” value (Colo205 xenografts) was greater than 80%, the inhibition at 0.1 µM (SRC; [2]) was 96% and the IC50 (SRC; [3]) was 6 nM. For the same compound, the inhibition at 0.1 µM (ABL1) was 81%, the inhibition at 0.1 µM (PDGFR A; [2]) was 95% and the IC50 (PDGFR A; [3]) was 9 nM. The inhibition at 0.1 µM (VEGFR2; [2]) was 95%, the IC50 (VEGFR2; [3]) was 19 nM and the inhibition at 0.1 µM (RET) was 96%. The inhibition at 0.1 µM (PDGFR B; [2]) was 82%, the IC50 (PDGFR B; [3]) was 19 nM and the inhibition at 0.1 µM (KIT; [2]) was 66%. It also gave an IC50 (KIT; [3]) of 41 nM and an inhibition at 0.1 µM (ABL1 T315I) of 65%.
